Assay results: patent US6818215B2, “Antibodies to senescent cell-derived inhibiters of DNA synthesis” (priority 1991, dated 2004)

Columns and labels:
[1] = test system: SUSMI; test: Transient transfection of SDI-1, inhibition of DNA synthesis; format: cell-based
Excerpt: (§1) This provides further evidence that SDI-1 behaves like the inhibitor previously detected in senescent cells.

[2] = test system: SV40 transformed cell line GM639; test: as above; format: cell-based
Excerpt: as §1

[3] = test system: Human umbilical vein endothelial cells; test: GST-SDI-1 fusion protein, thymidine incorporation; format: cell-based
Method: (§2) As indicated above, SDI-1 has the capacity to suppress the proliferation of tumor cells. […] In the experiment, 5×10^3 cells were plated overnight at 37° C. (only for adherent cells) and then incubated with the SDI fusion protein. After 48 hours at 37° C., cells were pulsed with thymidine for 24 hours and then harvested. The results of this experiment are shown in Table 8; the thymidine incorporation by untreated cells was expressed as 100%. all determinations were made in quadruplicate.

[4] = test system: Fibroblasts (L-929); test: GST-SDI-1 fusion protein, thymidine incorporation; format: cell-based, Murine; conditions: 50 μg/ml
Method: as §2

[5] = target: T1, cdk2 protein (Homo sapiens, UniProt P24941); test: Binding of in vitro translated SDI-1 deletion mutants to purified cdk2, anti-cdk2 immunoprecipitation; conditions: 45 μl translation product, 1 ug cdk2, 4° C.
T1 construct: host or cells: baculovirus expression system
Method: To determine whether the DNA synthesis inhibition caused by these mutants was occurring through inhibition of cdk kinases, the binding of in vitro translated deletion mutant proteins products with purified cdk2protein was examined. Thus, the various deletion mutants of SDI-1 were translated in reticulocyte lysates (Promega) using pBluescript based plasmids as transcription templates for the T7 RNA polymerase. For in vitro binding, 45 μl of the translation product was added to 500 μl binding buffer (50 mM Tris/HCl, pH 7.5, 120 mM NaCl, 2 mM EDTA, 0.1% NP-40, 1 mM NaF, 0.1 m.M sodium vanidate, 5 μg/ml leupeptin, 5 μg/ml soybean trypsin inhibitor, 5 μg/ml aprotinin) containing 1 ug cdk2 protein purified from a bacculovirus expression system. The mixture was gently rocked for 1 hour at 4° C. and then 7.5 μg anti-cdk2 rabbit polyclonal antibody was added. Mixing was continued for 1 hour at 4° C. The immunocomplex was absorbed by incubation with 40 μl protein G plus A beads for 2 hr. The matrices were then washed three times with 0.5 ml of binding buffer prior to electrophoresis and autoradiography.

[6] = test system: B16 murine melanoma cell line; test: Lipofectamine liposome-mediated delivery of SDI-1 protein; format: cell-based
[7] = test system: SV 40 early promoter; test: CAT reporter transcription assay, SV-CAT; format: cell-based
Method: (§3) The effect of the human SDI-1 on transcription driven by two E2F-responsive promoters was determined. Proliferating A31 cells were transfected with an SDI-1 expression vector in which the SDI-1 cDNA was driven by the strong constitutive cytomegalovirus early promoter (CMV) together with a reporter vector in which the chloramphenicol acetyltransferase (CAT) gene was driven by either the hamster dihydrofolate reductase (DHFR) promoter or the human cdc2 promoter (cdc2-CAT). A31 cells are Balb/c murine 3T3 fibroblasts whose origin and growth properties have been described (Lu, K. et al., Molec. Cell. Biol. 9:3411-3417 (1989); Dimri, G. P et al., J. Biol. Chem. 269:16180-16186 (1994), herein incorporated by reference). Cells were transfected with 2 μg of expression vectors, reporters vectors (for transactivation) and the CMV-β-gal identification/normalization vector using Lipofectamine (Gibco-BRL), as described by Dimri, G. P et al. (J. Biol. Chem. 269:16180-16186 (1994), herein incorporated by reference), The vector backbone was added to the mixture as needed to equalize the amount of transfected DNA. Seventy-two hours later, the cells were lysed and assayed for chloramphenicol acetyl transferase (CAT) and β-galactosidase activity. Both DHFR and cdc2 were expressed by proliferating cells, largely due to E2F-mediated transcription that is dependent on E2F binding sites in the 5′ regulatory regions of these genes (Slansky, J. E. et al., Molec. Cell. Biol. 13:1610-1618 (1993); Dalton, S., EMBO J. 11:1797-1804 (1992)).
(§4) In sharp contrast to the response of the DHFR and cdc2 promoters, CMV-SDI-1 had little or no effect on reporter activity driven by either the SV 40 early promoter (SV-CAT or the c-fos promoter (fos-CAT) (Table 16). Neither the SV40 early genes nor c-fos has been reported to be E2F-responsive.

[8] = test system: c-fos promoter; test: CAT reporter transcription assay, fos-CAT; format: cell-based; conditions: SDI-1 2.0 μg
Method: as §3, §4

[9] = test system: C33A (HTB 31); test: DNA synthesis inhibition by SDI-1 in pRb-deficient cells; format: cell-based, human
Method: Because SDI-1 inhibits the protein kinases that phosphorylate pRb, and unphosphorylated pRb is believed to negatively regulate E2F activity (Nevins, J. R., Science 258:424-429 (1992)), pRb is presumed to be a central mediator of SDI-1's effects. Since A31 cells express a normal Rb gene, the ability of SDI-1 to inhibit E2F activity, and possibly growth, in tumor cells that lack a functional pRb was tested. […] C33A cells were obtained from the American Type Culture Collection (Rockville, Md.).
By contrast, C33A and A31 cells were equally sensitive to SDI-1 inhibition of E2F activity. Thus, CMV-SDI-1 reduced DHFR-, cdc2- and SV/E2F-driven CAT activity to approximately equal extents in C33A and A31 cells. As expected CMV-SDI-1 had no effect on SV/E2Fm-driven CAT activity in either cell line.

SDI-1: senescent cell derived inhibitor of DNA synthesis, 164 amino acid protein, SEQ ID NO:2
inhibition (DNA synthesis) [1]: 40% | inhibition (DNA synthesis) [2]: < 20% | Relative Cell (% of Control) ([3]; 30 μg/ml): 5 ± 1 % of Control | Relative Cell (% of Control) ([3]; 50 μg/ml): 2 ± 1 % of Control | Relative Cell (% of Control) [4]: 4 ± 1 % of Control | binding to purified cdk2 protein [5]: bound cdk2 protein efficiently | 3H-Tdr Uptake ([6]; 48 hr): 2134 ± 294 | Cell Number ([6]; 48 hr): 7820 ± 141 | Ratio of SDI-1 Treated to BSA Treated, 3H-Tdr Uptake ([6]; 48 hr): 0.34 | Ratio of SDI-1 Treated to BSA Treated, Cell No. ([6]; 48 hr): 0.29 | detection of SDI-1 in cells ([6]; 72 hours after liposome treatment): not detectable | 3H-Tdr Uptake ([6]; 72 hr): 8765 ± 533 | Cell Number ([6]; 72 hr): 23710 ± 1485 | Ratio of SDI-1 Treated to BSA Treated, 3H-Tdr Uptake ([6]; 72 hr): 0.3 | Ratio of SDI-1 Treated to BSA Treated, Cell No. ([6]; 72 hr): 0.28 | fraction of cells with SDI-1 detected in the nuclei ([6]; after 3-4 hours): ½ | fraction of cells with SDI-1 detected in the nuclei ([6]; after 9 hours): ⅓ | % Activity ([7]; SDI-1 1.0 μg): 103% | % Inhibition ([7]; SDI-1 1.0 μg): 0% | Normalized CAT Activity ([7]; SDI-1 1.0 μg): 3743 counts per minute | % Activity ([7]; SDI-1 2.0 μg): 106% | % Inhibition ([7]; SDI-1 2.0 μg): 0% | Normalized CAT Activity ([7]; SDI-1 2.0 μg): 3828 counts per minute | % Activity ([7]; SDI-1 4.0 μg): 93% | % Inhibition ([7]; SDI-1 4.0 μg): 7% | Normalized CAT Activity ([7]; SDI-1 4.0 μg): 3366 counts per minute | % Activity [8]: 96% | % Inhibition [8]: 4% | Normalized CAT Activity [8]: 16273 counts per minute | inhibition (antiproliferative effect) [9]: 40-50%
